Test results reported in ChEMBL document CHEMBL4152259, “Benzoxazinone-containing 3,5-dimethylisoxazole derivatives as BET bromodomain inhibitors for treatment of castration-resistant prostate cancer” (Eur J Med Chem, 2018).
Activity calls are given as the source filed them. The calls are words filed in the database; no cut-off is given here.

Key:
[1] = molecular target: T1, Transcription intermediary factor 1-alpha (Homo sapiens) (UniProt O15164); test: Binding affinity to TIF1 (unknown origin) assessed as change in melting temperature at 200 uM by SYPRO orange dye based fluorescence assay
T1 sequence (whole entry): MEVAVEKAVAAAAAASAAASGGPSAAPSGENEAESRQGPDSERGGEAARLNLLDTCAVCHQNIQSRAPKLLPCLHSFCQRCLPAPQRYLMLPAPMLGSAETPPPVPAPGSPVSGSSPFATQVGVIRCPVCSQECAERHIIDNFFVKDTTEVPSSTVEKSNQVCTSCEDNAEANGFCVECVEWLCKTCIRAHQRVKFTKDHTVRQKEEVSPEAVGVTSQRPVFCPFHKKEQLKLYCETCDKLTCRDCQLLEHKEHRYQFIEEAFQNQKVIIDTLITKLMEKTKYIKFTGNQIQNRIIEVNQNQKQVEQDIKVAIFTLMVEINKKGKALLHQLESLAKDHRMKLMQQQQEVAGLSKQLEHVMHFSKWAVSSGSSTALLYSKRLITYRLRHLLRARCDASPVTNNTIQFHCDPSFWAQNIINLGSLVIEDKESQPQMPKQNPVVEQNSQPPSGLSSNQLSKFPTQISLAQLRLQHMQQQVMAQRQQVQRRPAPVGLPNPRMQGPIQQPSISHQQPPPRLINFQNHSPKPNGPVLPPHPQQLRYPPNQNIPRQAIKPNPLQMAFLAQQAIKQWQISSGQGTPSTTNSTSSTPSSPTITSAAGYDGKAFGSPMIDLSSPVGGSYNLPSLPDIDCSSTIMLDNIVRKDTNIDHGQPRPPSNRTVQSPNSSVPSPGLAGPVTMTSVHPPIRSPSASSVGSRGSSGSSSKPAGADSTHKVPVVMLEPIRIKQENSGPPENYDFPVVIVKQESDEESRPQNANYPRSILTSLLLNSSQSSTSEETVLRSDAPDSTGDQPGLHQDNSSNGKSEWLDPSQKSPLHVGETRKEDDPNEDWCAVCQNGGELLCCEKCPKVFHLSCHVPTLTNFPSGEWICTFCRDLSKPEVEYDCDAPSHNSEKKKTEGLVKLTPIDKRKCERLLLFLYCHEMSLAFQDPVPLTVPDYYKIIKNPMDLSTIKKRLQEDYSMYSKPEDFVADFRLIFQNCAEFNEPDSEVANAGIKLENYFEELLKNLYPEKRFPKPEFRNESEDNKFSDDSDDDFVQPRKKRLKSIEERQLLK

[2] = molecular target: T2, Bromodomain-containing protein 4 (Homo sapiens, UniProt O60885)
Description: Binding affinity to His6-tagged human BRD4 bromodomain-1 (N44 to E168 residues) expressed in Escherichia coli BL21(DE3) assessed as change in melting temperature at 200 uM by SYPRO orange dye based fluorescence assay

[3] = molecular target: T2, Bromodomain-containing protein 4; test: Binding affinity to His6-tagged human BRD4 bromodomain-1 (N44 to E168 residues) expressed in Escherichia coli BL21(DE3) by ITC
LNCaP = test: Antiproliferative activity against human LNCAP cells; format: functional, cell-based
DU-145 = test: Antiproliferative activity against human DU145 cells treated at 12 hrs post cell seeding measured at 72 to 144 hrs post cell seeding by Cell-Titer Glo assay; format: functional, cell-based
PC-3 = test: Antiproliferative activity against human PC3 cells treated at 12 hrs post cell seeding measured at 72 to 144 hrs post cell seeding by Cell-Titer Glo assay; format: functional, cell-based
MCF7 = test: Antiproliferative activity against human MCF7 cells treated at 12 hrs post cell seeding measured at 72 to 144 hrs post cell seeding by Cell-Titer Glo assay; format: functional, cell-based
Hs-578T = test: Antiproliferative activity against human Hs578T cells treated at 12 hrs post cell seeding measured at 72 to 144 hrs post cell seeding by Cell-Titer Glo assay; format: functional, cell-based
MV4-11 = test: Antiproliferative activity against human MV4-11 cells treated at 12 hrs post cell seeding measured at 72 to 144 hrs post cell seeding by Cell-Titer Glo assay; format: functional, cell-based
HT-29 = test: Antiproliferative activity against human HT-29 cells treated at 12 hrs post cell seeding measured at 72 to 144 hrs post cell seeding by Cell-Titer Glo assay; format: functional, cell-based
U2OS = test: Antiproliferative activity against human U2OS cells treated at 12 hrs post cell seeding measured at 72 to 144 hrs post cell seeding by Cell-Titer Glo assay; format: functional, cell-based
HeLa = test: Antiproliferative activity against human HeLa cells treated at 12 hrs post cell seeding measured at 72 to 144 hrs post cell seeding by Cell-Titer Glo assay; format: functional, cell-based
A549 = test: Antiproliferative activity against human A549 cells treated at 12 hrs post cell seeding measured at 72 to 144 hrs post cell seeding by Cell-Titer Glo assay; format: functional, cell-based
NCI-H1975 = test: Antiproliferative activity against human NCI-H1975 cells treated at 12 hrs post cell seeding measured at 72 to 144 hrs post cell seeding by Cell-Titer Glo assay; format: functional, cell-based
HFL1 = test: Antiproliferative activity against HFL1 cells treated at 12 hrs post cell seeding measured at 72 to 144 hrs post cell seeding by Cell-Titer Glo assay; format: cell-based; conditions: Homo sapiens
LNCaP C4-2B = test: Inhibition of colony formation in human C4-2B cells after 14 days by crystal violet staining based assay; format: functional, cell-based
Homo sapiens [4] = species: Homo sapiens; test: Inhibition of BET bromodomain in human LNCAP cells assessed as reduction in c-Myc mRNA level at 1 uM after 48 hrs by qPCR assay; format: cell-based
Homo sapiens [5] = species: Homo sapiens; test: Inhibition of BET bromodomain in human 22Rv1 cells assessed as reduction in ERG mRNA level at 1 uM after 48 hrs by qPCR assay; format: cell-based
Homo sapiens [6] = species: Homo sapiens; test: Inhibition of BET bromodomain in human 22Rv1 cells assessed as full length AR protein level at 4 uM after 48 hrs by Western blot assay (reference value: 1); format: cell-based
Homo sapiens [7] = species: Homo sapiens; test: Inhibition of BET bromodomain in human 22Rv1 cells assessed as full length AR protein level at 16 uM after 48 hrs by Western blot assay (reference value: 1); format: cell-based
Homo sapiens [8] = species: Homo sapiens; test: Inhibition of BET bromodomain in human 22Rv1 cells assessed as AR-varient protein level at 1 uM after 48 hrs by Western blot assay (reference value: 1); format: cell-based
Homo sapiens [9] = species: Homo sapiens; test: Inhibition of BET bromodomain in human 22Rv1 cells assessed as AR-varient protein level at 16 uM after 48 hrs by Western blot assay (reference value: 1); format: cell-based
CWR22R = test: Antimigratory activity against human 22Rv1 cells assessed as inhibition of wound closure at 1 uM after 48 hrs by bright field microscopic method; format: functional, cell-based
[10] = Cmax in Sprague-Dawley rat at 2 mg/kg, iv administered as single dose; format: ADME, organism-based; parameters: dose 2 mg/kg, route intravenous; conditions: in vivo
[11] = Cmax in Sprague-Dawley rat at 10 mg/kg, po administered as single dose; format: ADME, organism-based; parameters: dose 10 mg/kg, route oral; conditions: in vivo
[12] = AUC (0 to infinity) in Sprague-Dawley rat at 2 mg/kg, iv administered as single dose; format: ADME, organism-based; parameters: dose 2 mg/kg, route intravenous, time infinity; conditions: in vivo
[13] = Half life in Sprague-Dawley rat at 2 mg/kg, iv administered as single dose; format: ADME, organism-based; conditions: in vivo
[14] = Half life in Sprague-Dawley rat at 10 mg/kg, po administered as single dose; format: ADME, organism-based; conditions: in vivo
[15] = Volume of distribution at steady state in Sprague-Dawley rat at 2 mg/kg, iv administered as single dose; format: ADME, organism-based; conditions: in vivo, read-out: Vdss

Structure (SMILES) | ΔTm [1] | ΔTm [2] | Kd [3] | IC50 (DU-145) | IC50 (PC-3) | IC50 (MCF7) | IC50 (Hs-578T) | IC50 (MV4-11) | IC50 (HT-29) | IC50 (U2OS) | IC50 (HeLa) | IC50 (A549) | IC50 (NCI-H1975) | IC50 (HFL1) | also measured
Cc1noc(C)c1-c1ccc2c(c1)O[C@H](CC1CC1)C(=O)N2CCN1CCOCC1 | -0.3 °C | 8.1 °C | – | – | – | – | – | – | – | – | – | – | – | – | –
CCN1C(=O)[C@@H](CC2CC2)Oc2cc(-c3c(C)noc3C)ccc21 | 0.8 °C | 9.6 °C | 334 nM | – | – | – | – | – | – | – | – | – | – | – | –
Cc1noc(C)c1-c1ccc2c(c1)OC(c1ccccc1)C(=O)N2 (centres undefined) | -0.9 °C | 9.6 °C | – | – | – | – | – | – | – | – | – | – | – | – | –
Cc1sc2c(c1C)C(c1ccc(Cl)cc1)=N[C@@H](CC(=O)OC(C)(C)C)c1nnc(C)n1-2 | 0 °C | – | – | 2520 nM | 3010 nM | 200 nM | 160 nM | 160 nM | 20 nM | 1620 nM | 3760 nM | 1670 nM | 1230 nM | 290 nM | IC50 (LNCaP): 110 nM
Cc1noc(C)c1-c1ccc2c(c1)OC(c1ccccc1F)C(=O)N2 (centres undefined) | -0.6 °C | 8.4 °C | – | – | – | – | – | – | – | – | – | – | – | – | –
Cc1noc(C)c1-c1ccc2c(c1)O[C@H](CC1CC1)C(=O)N2 | -0.3 °C | 10.5 °C | 110 nM | 8210 nM | 10800 nM | 1800 nM | 1900 nM | 570 nM | 1390 nM | 11200 nM | 18600 nM | 5400 nM | 9860 nM | 20000 nM | inhibition (LNCaP C4-2B): Dose-dependent effect; inhibition (Homo sapiens [4]): Active; inhibition (Homo sapiens [5]): Active; fold change (FC) (Homo sapiens [6]): 0.4; fold change (FC) (Homo sapiens [7]): 0.09; fold change (FC) (Homo sapiens [8]): 0.83; fold change (FC) (Homo sapiens [9]): 0.06; inhibition (CWR22R): Active; Cmax [10]: 1350 ng/mL; Cmax [11]: 830 ng/mL; AUC(0-inf) [12]: 997 ng·h/mL; half-life [13]: 48 min; half-life [14]: 42 min; Vd [15]: 1.6 L/kg
Cc1noc(C)c1-c1ccc2c(c1)O[C@H](CC(C)C)C(=O)N2 | -0.9 °C | 11.7 °C | 81 nM | 7370 nM | 10400 nM | 1160 nM | 1110 nM | 170 nM | 600 nM | 12900 nM | 41100 nM | 5960 nM | 33000 nM | 30200 nM | –
